The results in this text go back to patent US11230549B2, “Quinolino-pyrrolidin-2-one derivative and application thereof” (MEDSHINE DISCOVERY INC., priority 2018, dated 2022).

One assay deals with T1, Human-derived ATM kinase (Homo sapiens, UniProt Q13315).
T1 construct: Eurofins (contract laboratory that ran the test)
In words: ATM enzyme activity test (HTRF, phosphorylation of GST-cMyc-p53). The format is biochemical. How it is done: (§1) The compounds of the present disclosure used for experiments are all prepared in-house, and their chemical names and structural formulas are shown in the preparation examples of each compound. The experimental tests were carried out by a UK company Eurofins, and the experimental results were provided by the company. The following experimental processes were also provided by the company.
(§2) Human-derived ATM kinase was incubated in a buffer solution containing 30 nM of GST-cMyc-p53 and Mg/ATP. The concentration of Mg/ATP was determined according to different needs. The reaction was initiated by adding a Mg/ATP complex. After incubating for about 30 minutes at room temperature, a stop solution containing EDTA was added to stop the reaction. Finally, for phosphorylated p53, a detection buffer containing a d2-labeled anti-GST monoclonal antibody and an europium-labeled phosphorylated Ser15 antibody was added. Then time-resolved fluorescence mode was used to read a detection disk, and a homogeneous time-resolved fluorescence (HTRF) signal was obtained by calculating formula HTRF=10000×(Em665 nm/Em620 nm).
In general terms: Time-resolved FRET reads energy transfer from a long-lived donor to a nearby acceptor.

Assay [1] deals with T2, Human-derived DNA-PK kinase (Homo sapiens, UniProt P78527).
T2 construct: Eurofins (contract laboratory that ran the test)
Briefly: DNA-PK enzyme activity test (HTRF, phosphorylation of GST-cMyc-p53). The format is biochemical. How it is done: as §1
as §2, with “Human-derived DNA-PK” for “Human-derived ATM”, “containing 50” for “containing 30”

Structures are written as SMILES. Some results are limits rather than exact numbers.

T1 sequence (Q13315 whole entry): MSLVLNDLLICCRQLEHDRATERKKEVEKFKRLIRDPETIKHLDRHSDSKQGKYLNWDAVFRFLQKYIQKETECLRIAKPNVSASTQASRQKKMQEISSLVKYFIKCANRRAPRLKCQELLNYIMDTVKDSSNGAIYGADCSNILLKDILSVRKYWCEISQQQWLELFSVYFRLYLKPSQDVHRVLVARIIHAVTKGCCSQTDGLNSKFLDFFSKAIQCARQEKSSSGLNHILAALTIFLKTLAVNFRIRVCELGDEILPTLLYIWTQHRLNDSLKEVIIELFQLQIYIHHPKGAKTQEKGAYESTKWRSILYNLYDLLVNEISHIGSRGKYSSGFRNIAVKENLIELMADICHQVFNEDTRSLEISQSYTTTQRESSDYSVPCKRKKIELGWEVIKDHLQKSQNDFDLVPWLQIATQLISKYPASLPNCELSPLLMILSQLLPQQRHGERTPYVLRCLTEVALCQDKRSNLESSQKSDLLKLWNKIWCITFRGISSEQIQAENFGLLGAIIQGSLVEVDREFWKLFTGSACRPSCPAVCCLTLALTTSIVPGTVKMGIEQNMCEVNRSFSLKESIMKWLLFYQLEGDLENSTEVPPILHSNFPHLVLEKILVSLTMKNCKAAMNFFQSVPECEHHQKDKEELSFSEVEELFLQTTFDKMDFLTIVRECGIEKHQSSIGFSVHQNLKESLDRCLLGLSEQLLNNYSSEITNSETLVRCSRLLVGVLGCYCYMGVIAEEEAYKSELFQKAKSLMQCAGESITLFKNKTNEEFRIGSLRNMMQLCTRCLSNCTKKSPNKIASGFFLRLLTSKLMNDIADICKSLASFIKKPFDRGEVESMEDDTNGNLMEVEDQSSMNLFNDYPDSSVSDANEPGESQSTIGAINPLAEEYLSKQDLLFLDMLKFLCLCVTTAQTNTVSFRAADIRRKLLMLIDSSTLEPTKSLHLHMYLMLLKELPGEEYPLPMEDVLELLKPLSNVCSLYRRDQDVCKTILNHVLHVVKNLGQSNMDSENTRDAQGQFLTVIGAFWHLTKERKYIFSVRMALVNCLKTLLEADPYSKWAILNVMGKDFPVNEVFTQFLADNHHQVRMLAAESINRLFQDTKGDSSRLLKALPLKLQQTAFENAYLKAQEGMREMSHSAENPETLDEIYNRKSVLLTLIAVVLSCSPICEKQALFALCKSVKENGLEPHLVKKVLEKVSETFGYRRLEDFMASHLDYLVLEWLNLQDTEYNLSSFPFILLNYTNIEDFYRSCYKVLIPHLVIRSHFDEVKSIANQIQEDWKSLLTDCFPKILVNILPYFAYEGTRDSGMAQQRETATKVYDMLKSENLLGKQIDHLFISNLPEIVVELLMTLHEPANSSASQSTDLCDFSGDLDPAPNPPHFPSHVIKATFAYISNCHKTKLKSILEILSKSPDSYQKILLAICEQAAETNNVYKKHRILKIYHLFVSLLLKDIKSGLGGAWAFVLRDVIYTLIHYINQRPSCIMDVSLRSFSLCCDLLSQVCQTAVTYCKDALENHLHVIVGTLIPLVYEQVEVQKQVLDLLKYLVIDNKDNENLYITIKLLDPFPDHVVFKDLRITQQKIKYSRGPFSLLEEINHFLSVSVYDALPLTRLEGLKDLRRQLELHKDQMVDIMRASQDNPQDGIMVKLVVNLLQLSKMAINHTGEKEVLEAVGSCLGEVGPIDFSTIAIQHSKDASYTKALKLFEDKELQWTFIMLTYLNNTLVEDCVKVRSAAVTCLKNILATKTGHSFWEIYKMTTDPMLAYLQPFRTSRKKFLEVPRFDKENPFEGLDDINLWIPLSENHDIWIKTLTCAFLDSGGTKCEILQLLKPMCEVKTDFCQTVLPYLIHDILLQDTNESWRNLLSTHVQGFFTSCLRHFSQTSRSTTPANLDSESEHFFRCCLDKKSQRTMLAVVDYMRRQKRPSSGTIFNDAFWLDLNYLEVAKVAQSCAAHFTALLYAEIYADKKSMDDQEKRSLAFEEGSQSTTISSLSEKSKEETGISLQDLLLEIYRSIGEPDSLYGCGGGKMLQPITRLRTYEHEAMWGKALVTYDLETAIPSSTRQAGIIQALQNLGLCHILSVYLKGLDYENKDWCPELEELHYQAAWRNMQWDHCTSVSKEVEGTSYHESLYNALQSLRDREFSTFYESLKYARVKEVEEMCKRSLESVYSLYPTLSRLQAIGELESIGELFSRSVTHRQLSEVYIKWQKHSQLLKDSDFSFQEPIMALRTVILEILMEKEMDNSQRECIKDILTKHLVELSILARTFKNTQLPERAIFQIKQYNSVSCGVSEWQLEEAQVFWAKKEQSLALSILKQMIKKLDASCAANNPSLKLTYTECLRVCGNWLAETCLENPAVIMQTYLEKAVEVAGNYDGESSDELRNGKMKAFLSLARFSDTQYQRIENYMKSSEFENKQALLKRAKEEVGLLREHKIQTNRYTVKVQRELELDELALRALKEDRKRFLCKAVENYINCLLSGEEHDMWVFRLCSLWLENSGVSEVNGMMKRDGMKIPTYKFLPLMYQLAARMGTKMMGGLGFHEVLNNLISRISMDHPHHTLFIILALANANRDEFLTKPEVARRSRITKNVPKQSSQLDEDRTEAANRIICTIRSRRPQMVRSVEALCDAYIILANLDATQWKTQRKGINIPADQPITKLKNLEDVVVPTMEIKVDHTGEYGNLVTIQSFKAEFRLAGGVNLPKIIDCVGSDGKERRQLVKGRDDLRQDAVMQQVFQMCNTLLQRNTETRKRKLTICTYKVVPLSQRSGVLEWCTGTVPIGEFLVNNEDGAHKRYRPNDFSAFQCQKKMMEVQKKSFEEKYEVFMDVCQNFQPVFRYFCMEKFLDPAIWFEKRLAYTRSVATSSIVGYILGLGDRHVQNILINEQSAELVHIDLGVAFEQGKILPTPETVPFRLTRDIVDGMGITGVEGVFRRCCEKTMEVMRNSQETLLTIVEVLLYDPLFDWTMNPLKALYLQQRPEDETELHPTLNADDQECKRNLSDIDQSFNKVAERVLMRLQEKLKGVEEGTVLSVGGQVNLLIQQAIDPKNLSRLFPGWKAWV

One may read the IC50 as the concentration at which inhibition is half-maximal. Regarding `CN(C)CCCOc1ccc(-c2ccc3ncc4c(c3c2)C2(CCOCC2)C(=O)N4C)cn1` [Example 1], the values for the concentration for half-maximal inhibition (IC50) (against Human-derived ATM kinase; in assay [1]) were 0.9 nM and 78 nM, respectively.

On to `CN1C(=O)C2(CCOCC2)c2c1cnc1ccc(-c3cnn(C)c3)cc21` [Example 2], for which the IC50 at Human-derived ATM kinase came out at 288 nM; in assay [1], 73 nM.

As to `CN1C(=O)C2(CCOCC2)c2c1cnc1ccc(-c3ccc(OCCCN4CC[C@H](F)C4)nc3)cc21` [Example 3], the IC50 against Human-derived ATM kinase stood at 1 nM; in assay [1] it was 48 nM.

Regarding `CN1C(=O)C2(CCOCC2)c2c1cnc1ccc(-c3ccc(OCCCN4CC[C@@H](F)C4)nc3)cc21` [Example 4], the IC50 amounted to 1 nM against Human-derived ATM kinase and 62 nM in assay [1].

As to `CN1C(=O)C2(CCOCC2)c2c1cnc1ccc(-c3ccc(OCCCN4CCC(F)CC4)nc3)cc21` [Example 5], the half-maximal inhibitory concentration (IC50) was 2 nM on Human-derived ATM kinase and 92 nM in assay [1].

As to `CN1C(=O)C2(CCOCC2)c2c1cnc1ccc(-c3ccc(OCCCN(C4CC4)C4CC4)nc3)cc21` [Example 6], the concentration for half-maximal inhibition (IC50) against Human-derived ATM kinase was 2 nM; in assay [1], 800 nM.

Consider `CN(C)CCCOc1ccc(-c2ccc3ncc4c(c3c2)C2(CCC(F)(F)CC2)C(=O)N4C)cn1` [Example 7], for which the half-inhibitory concentration (IC50) turned out to be 1 nM against Human-derived ATM kinase and 153 nM in assay [1].

Consider `CN(C)CCCOc1ccc(-c2ccc3ncc4c(c3c2)C2(CCNCC2)C(=O)N4C)cn1` [Example 8], for which the IC50 came to 3 nM on Human-derived ATM kinase and 99 nM in assay [1].

`CN(C)CCCOc1ccc(-c2ccc3ncc4c(c3c2)C2(CCN(C)CC2)C(=O)N4C)cn1` [Example 9]: the figures for the half-maximal inhibitory concentration (IC50) (at Human-derived ATM kinase; in assay [1]) were 1 nM and 83 nM, respectively.

Take `CCN1CCC2(CC1)C(=O)N(C)c1cnc3ccc(-c4ccc(OCCCN(C)C)nc4)cc3c12` [Example 10]: the half-inhibitory concentration (IC50) was 2 nM against Human-derived ATM kinase and 80 nM in assay [1].

`CCN1CCC2(CC1)C(=O)N(C)c1cnc3ccc(-c4ccc(OCCCN5CCCCC5)nc4)cc3c12` [Example 11]: the IC50 against Human-derived ATM kinase amounted to 2 nM; in assay [1] it was 243 nM.

In the case of `CN(C)CCCOc1ccc(-c2ccc3ncc4c(c3c2)C2(CCN(CC(F)F)CC2)C(=O)N4C)cn1` [Example 12], the concentration for half-maximal inhibition (IC50) was 2 nM against Human-derived ATM kinase and 26 nM in assay [1].

In the case of `CN(C)CCCOc1ccc(-c2ccc3ncc4c(c3c2)C2(CCN(CC(F)(F)F)CC2)C(=O)N4C)cn1` [Example 13], the values for the concentration for half-maximal inhibition (IC50) (on Human-derived ATM kinase; in assay [1]) were 4 nM and 27 nM, respectively.

For the compound `CN1C(=O)C2(CCN(CC(F)(F)F)CC2)c2c1cnc1ccc(-c3ccc(OCCCN4CCCCC4)nc3)cc21` [Example 14], the concentration for half-maximal inhibition (IC50) came out at 3 nM against Human-derived ATM kinase and 46 nM in assay [1].

With `CC(C)N1CCC2(CC1)C(=O)N(C)c1cnc3ccc(-c4ccc(OCCCN(C)C)nc4)cc3c12` [Example 15], the IC50 was found to be 2 nM against Human-derived ATM kinase and 41 nM in assay [1].

With `CC(C)N1CCC2(CC1)C(=O)N(C)c1cnc3ccc(-c4ccc(OCCCN5CCCCC5)nc4)cc3c12` [Example 16], the IC50 came out at 4 nM on Human-derived ATM kinase and 204 nM in assay [1].

With `CC(=O)N1CCC2(CC1)C(=O)N(C)c1cnc3ccc(-c4ccc(OCCCN(C)C)nc4)cc3c12` [Example 17], the results for the IC50 (at Human-derived ATM kinase; in assay [1]) were 3 nM and 352 nM, respectively.

For the compound `CN(C)CCCOc1ccc(-c2ccc3ncc4c(c3c2)C2(CCN(C(=O)C3CC3)CC2)C(=O)N4C)cn1` [Example 18], the IC50 on Human-derived ATM kinase was determined as 2 nM; in assay [1], 343 nM.

On to `COC(=O)N1CCC2(CC1)C(=O)N(C)c1cnc3ccc(-c4ccc(OCCCN(C)C)nc4)cc3c12` [Example 19], for which the IC50 came to 0.8 nM against Human-derived ATM kinase and 77 nM in assay [1].

Turning to `COC(=O)N1CCC2(CC1)C(=O)N(C)c1cnc3ccc(-c4ccc(OCCCN5CCCCC5)nc4)cc3c12` [Example 20], the 50% inhibitory concentration (IC50) at Human-derived ATM kinase was found to be 2 nM; in assay [1] it was 129 nM.

For the compound `CC(C)OC(=O)N1CCC2(CC1)C(=O)N(C)c1cnc3ccc(-c4ccc(OCCCN(C)C)nc4)cc3c12` [Example 21], the IC50 was found to be 7 nM on Human-derived ATM kinase and 509 nM in assay [1].

For `CN(C)CCCOc1ccc(-c2ccc3ncc4c(c3c2)C2(CCN(C3CC3)CC2)C(=O)N4C)cn1` [Example 22], the figures for the IC50 (against Human-derived ATM kinase; in assay [1]) were 1 nM and 14 nM, respectively.

Take `CN1C(=O)C2(CCN(C3CC3)CC2)c2c1cnc1ccc(-c3ccc(OCCCN4CCCCC4)nc3)cc21` [Example 23]: the half-inhibitory concentration (IC50) is 0.8 nM at Human-derived ATM kinase and 30 nM in assay [1].

On to `CN1C(=O)C2(CCOCC2)c2c1cnc1ccc(-c3ccc(OCCCN4CCCCC4)nc3)cc21` [Example 24], for which the IC50 on Human-derived ATM kinase was 2 nM; in assay [1], 80 nM.

With `COC1CCC2(CC1)C(=O)N(C)c1cnc3ccc(-c4ccc(OCCCN(C)C)nc4)cc3c12` (stereo not shown) [Example 25], the IC50 against Human-derived ATM kinase came to 1 nM; in assay [1] it was 92 nM.

For `CN(C)CCCOc1ccc(-c2ccc3ncc4c(c3c2)C2(CCC(O)CC2)C(=O)N4C)cn1` (stereo not shown) [Example 26], the IC50 is 1 nM against Human-derived ATM kinase and 76 nM in assay [1].

Consider `CN(C)CCCOc1ccc(-c2ccc3ncc4c(c3c2)C2(CCC(C)(O)CC2)C(=O)N4C)cn1` (stereo not shown) [Example 27], for which the figures for the IC50 (on Human-derived ATM kinase; in assay [1]) were 1 nM and 99 nM, respectively.

For the compound `CN1C(=O)C2(CCC(C)(O)CC2)c2c1cnc1ccc(-c3ccc(OCCCN4CCCCC4)nc3)cc21` (stereo not shown) [Example 28], the values for the 50% inhibitory concentration (IC50) (against Human-derived ATM kinase; in assay [1]) were 2 nM and 334 nM, respectively.

On to `CN(C)CCCOc1ccc(-c2ccc3ncc4c(c3c2)C2(CCOCC2)C(=O)N4C2CC2)cn1` [Example 29], for which the IC50 against Human-derived ATM kinase was 2 nM; in assay [1] it was 269 nM.

For `O=C1N(C2CC2)c2cnc3ccc(-c4ccc(OCCCN5CCCCC5)nc4)cc3c2C12CCOCC2` [Example 30], the IC50 on Human-derived ATM kinase came to 2 nM; in assay [1], 475 nM.

Take `COCc1ccc(-c2ccc3ncc4c(c3c2)C2(CCOCC2)C(=O)N4C)cn1` [Example 31]: the half-maximal inhibitory concentration (IC50) is 63 nM on Human-derived ATM kinase and 88 nM in assay [1].

As to `CN(C)CCCOc1ccc(-c2cc3c4c(cnc3cc2F)N(C)C(=O)C42CCOCC2)cn1` [Example 33], the IC50 turned out to be 1 nM against Human-derived ATM kinase and 593 nM in assay [1].

Regarding `CN(C)CCCOc1ccc(-c2cc3c4c(cnc3cc2F)N(C2CC2)C(=O)C42CCOCC2)cn1` [Example 34], the results for the IC50 (at Human-derived ATM kinase; in assay [1]) were 5 nM and above 1000 nM, respectively.

With `O=C1N(C2CC2)c2cnc3cc(F)c(-c4ccc(OCCCN5CCCCC5)nc4)cc3c2C12CCOCC2` [Example 35], the concentration for half-maximal inhibition (IC50) against Human-derived ATM kinase is 3 nM; in assay [1], above 1000 nM.

For `CN(C)CCCOc1ccc(-c2cc3c4c(cnc3cc2Cl)N(C)C(=O)C42CCOCC2)cn1` [Example 36], the IC50 against Human-derived ATM kinase was 12 nM; in assay [1] it was above 1000 nM.
